# Reference: patent US9937182B2, “Therapeutic strategies for the treatment of preeclampsia” (UNIVERSITY OF IOWA RESEARCH FOUNDATION, priority 2013, dated 2018)
# “Also recorded” adds a separate entry of the source.
# Tested on: C57Bl/6J mice
# Experiment: Vasopressin infusion (240 ng/hr) during pregnancy, preeclampsia-like phenotypes
# Type: in vivo
# Protocol: Animal Studies: Female C57Bl/6J mice were obtained from Jackson Laboratories between 8-12 weeks of age. Osmotic minipumps infusing vasopressin (240 ng/hr) or saline vehicle were inserted into the subcutaneous space via incision between the scapulae. Following three days of recovery, females were mated with male C57Bl/6J mice. Presence of a vaginal plug indicated gestational day 0.5. Blood pressure was tracked before mating and throughout gestation by tail-cuff plethysmography. On gestational day 18, females were sacrificed for necropsy. Pup weight was recorded. Dam kidney sections were generated and imaged by electron microscopy by the University of Iowa Department of Pathology. All studies were approved by the University of Iowa Animal Care and Use Committee (ACURF #1211239).
# [1] = vasopressin 240 ng/hr sc infusion vs saline
compound,measurement,setting,value
NC(=O)CC[C@@H]1NC(=O)[C@H](Cc2ccccc2)NC(=O)[C@H](Cc2ccc(O)cc2)NC(=O)[C@@H](N)CSSC[C@@H](C(=O)N2CCC[C@H]2C(=O)N[C@@H](CCCN=C(N)N)C(=O)NCC(N)=O)NC(=O)[C@H](CC(N)=O)NC1=O [Arginine vasopressin],proteinuria,[1],apparent proteinuria
same,rate of pregnancy (fecundity),[1],significantly reduced the rate of pregnancy; also recorded: significantly reduced fecundity
same,renal cortex electron microscopy,[1],pathognomic glomerular endotheliosis
same,blood pressure in pregnancy,"vasopressin 240 ng/hr sc infusion vs saline, tail-cuff",robust increase in blood pressure; also recorded: appears to induce hypertension
same,fetal growth,"vasopressin 240 ng/hr sc infusion, gestational day 18",substantial fetal growth restriction
